Measured values taken from patent US20060029544A1, “Receptor-binding cyclic peptides and methods of use” (The Regents of the University of California Office of …, priority 2004, published 2006).

Tests used:
α5β1 integrin = molecular target: T1, α5β1 integrin (Homo sapiens, UniProt P05556+P08648); experiment: ELISA: soluble α5β1-hFc binding to immobilized 50 kDa fibronectin fragment in the presence of RGD peptides; details: 20 μM peptide
T1 construct: chimeras comprising the extracellular domain of αvβ3, αvβ5, α5β1, and αIIbβ3 linked to the Fc domain of either mouse IgG; purchased Celltech plc (supplied, no catalogue number)
T1 sequence (P08648 42-995 limits assumed): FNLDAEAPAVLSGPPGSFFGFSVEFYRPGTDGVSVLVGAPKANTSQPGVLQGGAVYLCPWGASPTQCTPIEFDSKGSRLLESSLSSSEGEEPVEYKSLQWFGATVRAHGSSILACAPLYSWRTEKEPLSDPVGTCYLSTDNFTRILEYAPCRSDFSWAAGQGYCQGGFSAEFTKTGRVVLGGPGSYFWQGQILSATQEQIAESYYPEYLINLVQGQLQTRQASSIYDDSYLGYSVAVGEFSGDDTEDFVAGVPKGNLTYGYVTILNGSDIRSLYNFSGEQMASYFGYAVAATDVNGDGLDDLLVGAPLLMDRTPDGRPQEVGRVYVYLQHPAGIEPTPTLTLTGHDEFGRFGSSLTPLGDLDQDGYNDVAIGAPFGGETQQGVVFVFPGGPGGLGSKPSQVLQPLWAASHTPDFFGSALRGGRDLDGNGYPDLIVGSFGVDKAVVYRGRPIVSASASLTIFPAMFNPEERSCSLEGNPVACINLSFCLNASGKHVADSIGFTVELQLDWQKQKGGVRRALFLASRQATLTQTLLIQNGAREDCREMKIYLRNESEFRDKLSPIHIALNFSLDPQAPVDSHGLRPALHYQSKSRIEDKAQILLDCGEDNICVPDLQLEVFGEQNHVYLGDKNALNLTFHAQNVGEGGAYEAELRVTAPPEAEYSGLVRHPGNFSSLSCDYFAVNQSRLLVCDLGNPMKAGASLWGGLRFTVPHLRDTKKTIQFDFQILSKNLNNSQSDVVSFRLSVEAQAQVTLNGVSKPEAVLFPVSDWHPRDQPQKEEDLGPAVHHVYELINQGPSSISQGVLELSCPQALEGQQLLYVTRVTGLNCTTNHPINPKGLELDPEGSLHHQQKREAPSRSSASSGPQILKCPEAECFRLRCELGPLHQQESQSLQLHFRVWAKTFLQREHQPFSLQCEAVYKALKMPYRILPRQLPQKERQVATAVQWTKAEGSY
T1 sequence (P05556 21-728 limits assumed): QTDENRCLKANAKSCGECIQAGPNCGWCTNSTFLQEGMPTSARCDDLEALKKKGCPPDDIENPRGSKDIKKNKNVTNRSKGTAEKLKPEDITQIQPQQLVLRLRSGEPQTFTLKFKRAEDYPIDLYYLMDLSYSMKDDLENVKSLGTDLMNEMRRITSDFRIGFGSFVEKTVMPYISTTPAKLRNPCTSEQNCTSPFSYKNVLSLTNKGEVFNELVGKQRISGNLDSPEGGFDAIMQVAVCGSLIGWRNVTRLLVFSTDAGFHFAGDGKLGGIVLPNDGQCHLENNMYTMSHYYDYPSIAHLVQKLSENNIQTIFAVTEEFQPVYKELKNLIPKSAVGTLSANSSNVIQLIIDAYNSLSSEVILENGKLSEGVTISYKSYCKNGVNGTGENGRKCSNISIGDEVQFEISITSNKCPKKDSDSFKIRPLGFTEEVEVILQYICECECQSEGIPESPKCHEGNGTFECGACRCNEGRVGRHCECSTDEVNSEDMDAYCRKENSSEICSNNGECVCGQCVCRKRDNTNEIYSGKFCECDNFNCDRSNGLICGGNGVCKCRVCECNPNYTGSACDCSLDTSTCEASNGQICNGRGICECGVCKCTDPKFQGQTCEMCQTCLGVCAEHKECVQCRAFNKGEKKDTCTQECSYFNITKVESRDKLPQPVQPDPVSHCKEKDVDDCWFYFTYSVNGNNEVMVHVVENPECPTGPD
Description: (§1) Four different soluble integrins were supplied by Celltech plc. Soluble forms of αvβ3, αvβ5, α5β1, and αIIbβ3 integrin were generated by constructing chimeras comprising the extracellular domain of αvβ3, αvβ5, α5β1, and αIIbβ3 linked to the Fc domain of either mouse IgG (αvβ3-mFc, αvβ5-mFc, and αIIbβ3-mFc) or human IgG (α5β1-hFc) as described by Stephens et al., Cell Adhes. Commun., 7:377-390 (2000) and Coe et al., J. Biol. Chem., 276:35854-35866 (2001). Since the four soluble integrin chimeras were supplied either as purified proteins (αvβ3-mFc and α5β1-hFc) or as unpurified hybridoma supernatants (αIIbβ3-mFc and αvβ5-mFc), it was necessary to use two types of ELISAs. […] In one type of ELISA (FIGS. 2A and 2B), the immobilized component is a 50 kDa fragment of fibronectin. In the second type of ELISA (FIGS. 2C and 2D), the immobilized component is a goat anti-mFc antibody that is used to capture chimeric proteins so that the RGD binding site of the integrin is maximally exposed. Each three-sided box in FIG. 2 represents a single well of a 96-well plate, and the components are listed in the sequence of their addition to the assay. The immobilized component at the bottom of the well is bound to the well by electrostatic interactions.
To analyze the affinity and selectively of RGD peptides for αvβ3 and α5β1, 96-well ELISA plates were coated with 100 μl of a 5 μg/ml of the 50 kDa fragment of fibronectin in PBS per well and left overnight at 4° C. The plates were washed with PBS using a Denley Wellwash 4 Mk 2. Washing was repeated twice with a 400 μl wash per well. 200 μ/well of blocking buffer (i.e., to prevent non-specific binding of proteins) was then added for 1 hour followed by a repeat washing with PBS. RGD peptides were then added at a maximum concentration of 200 μM and a preliminary screen was performed at three concentrations, 200,20, and 2 μM. 100 μl of an RGD peptide was added to each well and each assay was performed in triplicate. Purified soluble αvβ3-mFc or purified α5β1-hFc was diluted to 2 μg/ml and 15 ng/ml, respectively, in conjugate buffer and 100 μl was added to each well. The plates were incubated for 2 hours with shaking using a Luckham R100 Rotatest at approximately 150 rpm. After incubation, the plates were washed with PBS as previously described and a labeled antibody was added. For the αvβ3 assay, a horseradish peroxidase (HRP)-labeled F(ab′)2 fragment of goat anti-mouse IgG Fc was diluted 1:2000 in conjugate buffer and 100 μl was added to each well. For the α5β1 assay, an HRP-labeled F(ab′)2 fragment of goat anti-human IgG Fc was diluted 1:2000 in conjugate buffer and 100 μl was added to each well. Plates were incubated for 30 minutes with shaking followed by 2 washes with PBS. 100 μl of TMB substrate was added to each well and plates were shaken during a 10 minute color development. Plates were read using a plate spectrophotometer at 630 nm.
Two negative and two positive controls were used in both types of ELISAs. For example, the negative controls were wells that contained 50 μl of an active control peptide, integrin, and biotinylated ligand or 50 μl of the active control peptide and 50 μl of buffer. These negative control wells typically develop little to no color. […] These wells typically develop the maximum amount of color.
(§2) FIGS. 3-6 illustrate the percent binding of the vitronectin, fibronectin, or fibrinogen ligand to αvβ5, α5β1, αIIbβ3, or αvβ3 integrin in the presence of RGD peptides (i.e., linear (A), cyclic (B), or 4-[^19F]-fluorobenzoyl cyclic (C)) at different concentrations, with 100% maximum signal being the signal obtained in the absence of the peptide.

αvβ3 integrin = molecular target: T2, αvβ3 integrin (Homo sapiens, UniProt P05106+P06756); experiment: ELISA: soluble αvβ3-mFc binding to immobilized 50 kDa fibronectin fragment in the presence of RGD peptides; details: 2 μM peptide
T2 construct: chimeras comprising the extracellular domain of αvβ3, αvβ5, α5β1, and αIIbβ3 linked to the Fc domain of either mouse IgG; purchased Celltech plc (supplied, no catalogue number)
T2 sequence (P06756 31-992 limits assumed): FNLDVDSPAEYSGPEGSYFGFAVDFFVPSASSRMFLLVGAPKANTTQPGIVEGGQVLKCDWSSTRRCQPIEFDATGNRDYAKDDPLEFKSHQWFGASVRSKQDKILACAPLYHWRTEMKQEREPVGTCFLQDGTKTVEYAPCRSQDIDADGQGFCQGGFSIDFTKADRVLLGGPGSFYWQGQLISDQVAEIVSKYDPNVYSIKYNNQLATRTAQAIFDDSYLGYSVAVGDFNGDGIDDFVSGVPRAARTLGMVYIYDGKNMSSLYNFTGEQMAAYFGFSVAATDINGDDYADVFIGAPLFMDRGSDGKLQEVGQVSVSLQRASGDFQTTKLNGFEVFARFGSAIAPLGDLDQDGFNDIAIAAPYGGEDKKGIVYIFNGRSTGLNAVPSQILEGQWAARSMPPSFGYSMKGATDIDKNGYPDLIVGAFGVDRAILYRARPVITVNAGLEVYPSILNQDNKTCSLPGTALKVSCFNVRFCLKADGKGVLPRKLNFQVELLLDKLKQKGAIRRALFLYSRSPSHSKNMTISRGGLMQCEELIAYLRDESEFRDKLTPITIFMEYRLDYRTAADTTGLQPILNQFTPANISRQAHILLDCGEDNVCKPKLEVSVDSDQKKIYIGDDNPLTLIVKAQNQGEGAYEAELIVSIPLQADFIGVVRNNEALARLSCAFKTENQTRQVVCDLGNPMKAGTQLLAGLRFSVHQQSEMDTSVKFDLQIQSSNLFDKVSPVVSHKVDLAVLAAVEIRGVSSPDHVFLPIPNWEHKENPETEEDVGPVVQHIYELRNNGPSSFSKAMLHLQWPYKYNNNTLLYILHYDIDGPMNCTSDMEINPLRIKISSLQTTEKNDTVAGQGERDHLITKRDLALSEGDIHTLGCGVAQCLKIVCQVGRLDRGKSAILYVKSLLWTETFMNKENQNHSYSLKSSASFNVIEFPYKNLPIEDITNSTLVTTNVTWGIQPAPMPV
T2 sequence (P05106 27-718 limits assumed): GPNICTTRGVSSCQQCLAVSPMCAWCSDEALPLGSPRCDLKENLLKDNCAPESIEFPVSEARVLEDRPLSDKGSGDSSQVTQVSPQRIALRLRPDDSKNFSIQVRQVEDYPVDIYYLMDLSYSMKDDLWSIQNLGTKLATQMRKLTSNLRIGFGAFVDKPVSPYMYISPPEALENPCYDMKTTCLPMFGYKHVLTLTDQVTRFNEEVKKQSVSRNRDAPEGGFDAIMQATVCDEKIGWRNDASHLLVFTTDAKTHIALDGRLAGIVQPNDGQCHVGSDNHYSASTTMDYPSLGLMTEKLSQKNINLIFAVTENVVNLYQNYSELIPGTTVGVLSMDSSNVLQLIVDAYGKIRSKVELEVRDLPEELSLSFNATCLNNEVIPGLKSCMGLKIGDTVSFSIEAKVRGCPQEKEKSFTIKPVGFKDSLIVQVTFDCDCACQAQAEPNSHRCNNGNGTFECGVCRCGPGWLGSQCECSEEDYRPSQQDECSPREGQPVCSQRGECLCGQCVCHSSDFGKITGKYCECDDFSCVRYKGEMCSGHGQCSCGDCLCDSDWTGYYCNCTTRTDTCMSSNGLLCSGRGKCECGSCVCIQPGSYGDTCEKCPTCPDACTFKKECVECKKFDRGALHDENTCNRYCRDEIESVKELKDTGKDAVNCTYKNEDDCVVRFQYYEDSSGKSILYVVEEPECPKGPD
Description: as §1
The plates were washed with PBS using a Denley Wellwash 4 Mk 2. Washing was repeated twice with a 400 μl wash per well. […] Plates were read using a plate spectrophotometer at 630 nm.
Two negative and two positive controls were used in both types of ELISAs.
as §2

Substance: RGDY(OMe)K [B7]
- fibronectin binding to α5β1, % of the maximum signal (α5β1 integrin): 48.4%
- fibronectin binding to αvβ3, % of the maximum signal (αvβ3 integrin): 6.6%
